ChEMBL document CHEMBL4371033, “Highly Potent and Selective Plasmin Inhibitors Based on the Sunflower Trypsin Inhibitor-1 Scaffold Attenuate Fibrinolysis in Plasma” (J Med Chem, 2019)
Residues, ends and D or L forms follow the SMILES beside them.

Assays:
[1] = target: T1, Plasminogen (Homo sapiens, UniProt P00747); test: Inhibition of human plasmin assessed as association rate constant using Ac-RM(O2)YR-pNA as substrate after 30 mins
[2] = target: T2, Coagulation factor XII (Homo sapiens, UniProt P00748); test: Inhibition of activated beta-factor 12 (unknown origin) using Ac-QRFR-pNA as substrate after 30 mins relative to untreated control
T2 sequence (P00748 whole entry): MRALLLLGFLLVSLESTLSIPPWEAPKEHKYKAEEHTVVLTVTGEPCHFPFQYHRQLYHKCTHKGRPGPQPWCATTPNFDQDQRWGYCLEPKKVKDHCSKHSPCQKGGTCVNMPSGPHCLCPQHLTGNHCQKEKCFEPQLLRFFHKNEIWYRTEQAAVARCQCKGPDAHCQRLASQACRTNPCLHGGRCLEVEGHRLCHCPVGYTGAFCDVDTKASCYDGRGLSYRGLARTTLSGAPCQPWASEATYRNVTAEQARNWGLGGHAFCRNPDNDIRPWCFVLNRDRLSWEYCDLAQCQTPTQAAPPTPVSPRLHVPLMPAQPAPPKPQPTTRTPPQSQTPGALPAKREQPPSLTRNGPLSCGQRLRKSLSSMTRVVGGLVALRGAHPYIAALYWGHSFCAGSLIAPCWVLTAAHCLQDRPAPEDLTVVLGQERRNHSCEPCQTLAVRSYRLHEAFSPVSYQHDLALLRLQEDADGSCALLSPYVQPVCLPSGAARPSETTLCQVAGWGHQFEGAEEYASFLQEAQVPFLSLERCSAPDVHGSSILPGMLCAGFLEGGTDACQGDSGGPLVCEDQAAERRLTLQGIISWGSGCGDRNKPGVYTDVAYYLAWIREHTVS

[3] = species: Homo sapiens; test: Selectivity index, ratio of IC50 for inhibition of plasma KLK (unknown origin) to IC50 for Inhibition of human plasmin
[4] = target: T3, Suppressor of tumorigenicity 14 protein (Homo sapiens, UniProt Q9Y5Y6); test: Inhibition of matriptase (unknown origin) using Boc-QAR-MCA as substrate after 30 mins relative to untreated control
T3 sequence (Q9Y5Y6 whole entry): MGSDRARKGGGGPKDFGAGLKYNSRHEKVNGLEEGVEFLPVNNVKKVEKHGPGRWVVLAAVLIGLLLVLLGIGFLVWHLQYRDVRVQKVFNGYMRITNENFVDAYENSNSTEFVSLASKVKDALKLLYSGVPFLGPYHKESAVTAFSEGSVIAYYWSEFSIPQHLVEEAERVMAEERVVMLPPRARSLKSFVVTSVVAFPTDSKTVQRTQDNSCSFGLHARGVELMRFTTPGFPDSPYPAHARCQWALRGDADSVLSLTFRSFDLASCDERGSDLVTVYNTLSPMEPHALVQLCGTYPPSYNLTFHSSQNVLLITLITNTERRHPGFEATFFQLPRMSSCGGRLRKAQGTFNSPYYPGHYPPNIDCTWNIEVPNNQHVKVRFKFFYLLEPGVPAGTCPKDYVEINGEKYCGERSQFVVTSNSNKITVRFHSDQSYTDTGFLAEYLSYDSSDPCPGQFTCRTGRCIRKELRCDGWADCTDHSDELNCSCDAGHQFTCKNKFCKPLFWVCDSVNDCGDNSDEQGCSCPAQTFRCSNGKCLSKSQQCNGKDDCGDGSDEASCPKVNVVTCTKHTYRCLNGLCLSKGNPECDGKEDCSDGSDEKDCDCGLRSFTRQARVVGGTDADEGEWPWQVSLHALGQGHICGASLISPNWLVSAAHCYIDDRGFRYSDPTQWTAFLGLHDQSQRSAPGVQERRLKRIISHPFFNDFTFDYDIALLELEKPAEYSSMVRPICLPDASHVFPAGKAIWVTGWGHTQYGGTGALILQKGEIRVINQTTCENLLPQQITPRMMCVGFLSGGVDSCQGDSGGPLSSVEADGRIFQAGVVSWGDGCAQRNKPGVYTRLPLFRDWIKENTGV

[5] = target: T1, Plasminogen; test: Inhibition of human plasmin using Ac-RM(O2)YR-pNA as substrate after 30 mins

T1 sequence (P00747 97-580 limits assumed): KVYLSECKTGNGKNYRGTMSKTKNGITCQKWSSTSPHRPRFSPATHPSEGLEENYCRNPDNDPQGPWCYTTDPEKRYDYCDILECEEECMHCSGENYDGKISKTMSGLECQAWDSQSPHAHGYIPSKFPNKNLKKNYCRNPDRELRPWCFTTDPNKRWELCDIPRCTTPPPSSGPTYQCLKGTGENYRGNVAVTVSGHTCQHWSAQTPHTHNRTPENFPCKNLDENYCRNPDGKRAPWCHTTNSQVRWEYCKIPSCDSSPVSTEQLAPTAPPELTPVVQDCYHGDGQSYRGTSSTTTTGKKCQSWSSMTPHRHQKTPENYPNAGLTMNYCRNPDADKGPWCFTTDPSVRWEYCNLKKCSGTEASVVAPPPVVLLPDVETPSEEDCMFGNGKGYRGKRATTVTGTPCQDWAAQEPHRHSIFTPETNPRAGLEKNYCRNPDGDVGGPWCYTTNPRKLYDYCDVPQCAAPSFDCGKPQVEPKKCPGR
T1 sequence (P00747 581-810 limits assumed): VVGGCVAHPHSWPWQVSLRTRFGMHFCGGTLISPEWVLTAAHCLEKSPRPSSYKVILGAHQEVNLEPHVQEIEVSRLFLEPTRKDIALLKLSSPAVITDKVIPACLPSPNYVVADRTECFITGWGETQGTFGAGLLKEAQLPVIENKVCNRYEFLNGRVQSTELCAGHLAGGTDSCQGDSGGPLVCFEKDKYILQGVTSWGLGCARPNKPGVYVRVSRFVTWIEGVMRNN

K [1]: 1.9 ×10⁷ /M/s | Ki [2]: > 50 µM | Ratio IC50 [3]: > 1e+06 | Ki [4]: > 50 µM | Ki [5]: 0.051 nM
SMILES: CC[C@H](C)[C@@H]1NC(=O)[C@@H]2CCCN2C(=O)[C@@H]2CCCN2C(=O)[C@H](CCCCN)NC(=O)[C@H](CO)NC(=O)[C@H](CCCCN)NC(=O)[C@H](Cc2ccc(O)cc2)NC(=O)[C@@H]2CSSC[C@H](NC1=O)C(=O)N[C@@H](Cc1ccccc1)C(=O)N1CCC[C@H]1C(=O)N[C@@H](CC(=O)O)C(=O)NCC(=O)N[C@@H](CCCNC(=N)N)C(=O)N2 (HELM PEPTIDE1{C.F.P.D.G.R.C.Y.K.S.K.P.P.I}$PEPTIDE1,PEPTIDE1,1:R3-7:R3|PEPTIDE1,PEPTIDE1,1:R1-14:R2$$$V2.0)
